Measured values taken from DBAASP.
In brackets after ≈: the same amount, converted by molar mass.

Assays:
Experiment in all cases: ≥ marks a high value that may be exact or a test limit, other limits are often not marked, values filed in µg/mL are converted to µM
[1] = tested on: Bacillus subtilis CGMCC 1.3376
[2] = tested on: Escherichia coli CGMCC 1.8732
[3] = tested on: Klebsiella pneumoniae CGMCC 1.1736
[4] = tested on: Pseudomonas aeruginosa CGMCC 1.2421
[5] = tested on: Staphylococcus aureus CGMCC 1.8721
[6] = tested on: Staphylococcus epidermidis CGMCC 1.4260
[7] = tested on: Bacillus subtilis ATCC 23857
[8] = tested on: Candida albicans NCPF 1467
[9] = tested on: Enterococcus faecalis NCTC 12697
[10] = tested on: Escherichia coli ATCC 25922(GenR)
[11] = tested on: Escherichia coli ATCC 25922(RifR)
[12] = tested on: Escherichia coli NCTC 10418
[13] = tested on: Klebsiella pneumoniae ATCC 700603
[14] = tested on: Pseudomonas aeruginosa ATCC 27853
[15] = tested on: Staphylococcus aureus ATCC 25923(GenR)
[16] = tested on: Staphylococcus aureus ATCC 25923(RifR)
[17] = tested on: Staphylococcus aureus NCTC 10788
[18] = tested on: Staphylococcus aureus NCTC 12493
[19] = tested on: Bacillus magaterium AB90008
[20] = tested on: Enterobacter cloacae AB2010162
[21] = tested on: Escherichia coli DH5alpha
[22] = tested on: Klebsiella oxytoca AB2010143
[23] = tested on: Micrococcus luteus AB2010179
Pseudomonas fluorescens = tested on: Pseudomonas fluorescens
Pseudomonas putida = tested on: Pseudomonas putida
[24] = tested on: Salmonella enterica AB2010185
[25] = tested on: Staphylococcus aureus AB94004
[26] = tested on: Acinetobacter baumannii Q12-0809
[27] = tested on: Acinetobacter baumannii Q12-0867
[28] = tested on: Acinetobacter baumannii Q13-0717
[29] = tested on: Campylobacter jejuni NCTC 11351
Campylobacter jejuni = tested on: Campylobacter jejuni
[30] = tested on: Enterococcus faecalis JH-2-2
Escherichia coli K-12 = tested on: Escherichia coli K-12
Escherichia coli = tested on: Escherichia coli
[31] = tested on: Klebsiella pneumoniae NCTC 13442
[32] = tested on: Klebsiella pneumoniae Q14-0095
[33] = tested on: Listeria monocytogenes NCTC 11994
[34] = tested on: Pseudomonas aeruginosa PAO1
[35] = tested on: Pseudomonas aeruginosa Q12-0581
[36] = tested on: Pseudomonas aeruginosa Q14-0208
[37] = tested on: Pseudomonas aeruginosa Q14-0890
[38] = tested on: Salmonella typhimurium SL1344
[39] = tested on: Staphylococcus aureus ATCC 29213
[40] = tested on: Staphylococcus aureus MRSA-15
[41] = tested on: Staphylococcus aureus Q14-0320
[42] = tested on: Staphylococcus aureus RN4220

Compound: CC[C@H](C)[C@H](NC(=O)[C@H](C)N)C(=O)NCC(=O)N[C@@H](CO)C(=O)N[C@H](C(=O)N[C@@H](CC(C)C)C(=O)NCC(=O)N[C@@H](C)C(=O)N[C@@H](CC(C)C)C(=O)N[C@@H](C)C(=O)N[C@@H](CCCCN)C(=O)NCC(=O)N[C@@H](CC(C)C)C(=O)N1CCC[C@H]1C(=O)N[C@H](C(=O)N[C@@H](CC(C)C)C(=O)N[C@@H](CCCN=C(N)N)C(=O)N[C@@H](CO)C(=O)N[C@@H](Cc1c[nH]c2ccccc12)C(=O)N[C@H](C(=O)N[C@@H](CCCCN)C(=O)N[C@@H](CC(N)=O)C(=O)N[C@@H](CCCN=C(N)N)C(N)=O)[C@@H](C)CC)[C@@H](C)O)[C@@H](C)CC [AIGSILGALAKGLPTLRSWIKNR]
- MIC [1]: 3.13 µM (≈ 7.62 µg/mL)
- MIC [2]: 12.5 µM (≈ 30.4 µg/mL)
- MIC [3]: 25 µM (≈ 60.9 µg/mL)
- MIC [4]: 12.5 µM (≈ 30.4 µg/mL)
- MIC [5]: 25 µM (≈ 60.9 µg/mL)
- MIC [6]: 6.25 µM (≈ 15.2 µg/mL)

Compound: CC[C@H](C)[C@H](NC(=O)[C@@H]1CCCN1C(=O)[C@H](CC(C)C)NC(=O)[C@@H](N)Cc1ccccc1)C(=O)N[C@H](C(=O)N[C@@H](C)C(=O)N[C@@H](CCCCN)C(=O)N[C@@H](CC(C)C)C(=O)N[C@@H](CC(C)C)C(=O)N[C@@H](CO)C(=O)NCC(=O)N[C@@H](CC(C)C)C(=O)N[C@@H](CC(C)C)C(N)=O)C(C)C [FLPIVAKLLSGLL]
- MIC [7]: 4 µM (≈ 5.53 µg/mL)
- MIC [8]: 4 µM (≈ 5.53 µg/mL)
- MIC [9]: 8 µM (≈ 11.1 µg/mL)
- MIC [10]: ≥ 32 µM
- MIC [11]: ≥ 32 µM
- MIC [12]: 16 µM (≈ 22.1 µg/mL)
- MIC [13]: > 128 µM
- MIC [14]: 128 µM (≈ 177 µg/mL)
- MIC [15]: 8 µM (≈ 11.1 µg/mL)
- MIC [16]: 16 µM (≈ 22.1 µg/mL)
- MIC [17]: 2 µM (≈ 2.77 µg/mL)
- MIC [18]: 4 µM (≈ 5.53 µg/mL)

Compound: CC[C@H](C)[C@H](NC(=O)[C@H](CC(C)C)NC(=O)[C@H](CCCCN)NC(=O)[C@H](CC(C)C)NC(=O)[C@H](C)NC(=O)CNC(=O)[C@H](CCCCN)NC(=O)[C@H](C)NC(=O)[C@H](CC(C)C)NC(=O)[C@H](C)NC(=O)CNC(=O)[C@H](Cc1c[nH]c2ccccc12)NC(=O)[C@@H](N)Cc1ccccc1)C(=O)N1CCC[C@H]1C(=O)N[C@@H](CO)C(=O)N[C@@H](CC(C)C)C(=O)N[C@H](C(=O)N[C@@H](CO)C(=O)N[C@@H](CO)C(=O)N[C@@H](Cc1ccccc1)C(=O)N[C@H](C(=O)N[C@@H](CCCCN)C(=O)N[C@@H](CCCCN)C(=O)N[C@@H](CC(=O)O)C(N)=O)[C@@H](C)O)C(C)C [FWGALAKGALKLIPSLVSSFTKKD]
- MIC [19]: 30 µM (≈ 77.3 µg/mL)
- MIC [20]: ≥ 45 µM
- MIC [21]: 15.8 µM (≈ 40.7 µg/mL)
- MIC [22]: ≥ 45 µM
- MIC [23]: 15.8 µM (≈ 40.7 µg/mL)
- MIC (Pseudomonas fluorescens): ≥ 40 µM
- MIC (Pseudomonas putida): 20 µM (≈ 51.5 µg/mL)
- MIC [24]: 30 µM (≈ 77.3 µg/mL)
- MIC [25]: 5.6 µM (≈ 14.4 µg/mL)

Compound: CC(C)[C@H](NC(=O)[C@@H](N)CCC(N)=O)C(=O)N[C@@H](CCCN=C(N)N)C(=O)N[C@@H](Cc1c[nH]c2ccccc12)C(=O)N[C@@H](Cc1c[nH]c2ccccc12)C(=O)NCC(=O)N[C@@H](CCCN=C(N)N)C(=O)N[C@@H](Cc1ccc(O)cc1)C(=O)N[C@@H](Cc1c[nH]c2ccccc12)C(=O)N[C@@H](CCCN=C(N)N)C(=O)N[C@@H](CCCN=C(N)N)C(=O)N[C@@H](CCCCN)C(=O)N[C@@H](Cc1c[nH]c2ccccc12)C(=O)N[C@@H](C)C(=O)N[C@H](C(=O)N[C@@H](CS)C(=O)N[C@@H](CCCN=C(N)N)C(=O)O)[C@@H](C)O [QVRWWGRYWRRKWATCR]
- MIC [26]: 13.4 µM (≈ 32 µg/mL)
- MIC [27]: 6.68 µM (≈ 16 µg/mL)
- MIC [28]: 26.7 µM (≈ 64 µg/mL)
- MIC [29]: ≥ 53.4 µM
- MIC (Campylobacter jejuni): ≥ 53.4 µM
- MIC [30]: ≥ 107 µM
- MIC (Escherichia coli K-12): ≥ 107 µM
- MIC (Escherichia coli): > 53.4 µM
- MIC [13]: 26.7 µM (≈ 64 µg/mL)
- MIC [31]: ≥ 53.4 µM
- MIC [32]: ≥ 53.4 µM
- MIC [33]: ≥ 53.4 µM
- MIC [14]: 53.4 µM (≈ 128 µg/mL)
- MIC [34]: 214 µM (≈ 512 µg/mL)
- MIC [35]: ≥ 53.4 µM
- MIC [36]: 26.7 µM (≈ 64 µg/mL)
- MIC [37]: 13.4 µM (≈ 32 µg/mL)
- MIC [38]: ≥ 107 µM
- MIC [39]: 26.7 µM (≈ 64 µg/mL)
- MIC [40]: ≥ 104 µM
- MIC [18]: 6.68 µM (≈ 16 µg/mL)
- MIC [41]: 26.7 µM (≈ 64 µg/mL)
- MIC [42]: ≥ 107 µM
